In patent US12215106B2, “Pharmaceutical compounds and therapeutic methods” (RUTGERS, THE STATE UNIVERSITY OF NEW JERSEY, priority 2018, dated 2025):
Where a name gives a salt, the structure may show the parent alone. Read-outs that look alike come from different tables or passages of the source.

Experiment: Plasma pharmacokinetics and brain distribution after single IV, IP and oral administration
Type: in vivo
Protocol: The objective of this study was to investigate the plasma pharmacokinetics and brain distribution of Compound (14 in male C57BL/6 mice following a single intravenous, intraperitoneal and oral administration. A group of sixty-three male mice were divided into three groups (Group 1: 2 mg/kg/IV; Group 2: 10 mg/kg/IP and Group 3: 10 mg/kg/PO) with each group comprising of twenty-one mice.
Animals in Group 1 were administered intravenously with Compound 15 solution formulation in 5% NMP, 5% Solutol HS-15, 30% PEG-400 and 60% Captisol (20% w/v) at 2 mg/kg dose. […] Considering mortality intravenous dose was reduced to 2 mg/kg.
Animals in Group 2 and 3 were administered with Compound 15 solution formulation in 5% NMP, 5% Solutol HS-15, 30% PEG-400 and 60% Captisol (20% w/v) at a dose of 10 mg/kg by intraperitoneal and oral route respectively.
(§1) Blood samples (approximately 60 μL) were collected under light isoflurane anesthesia from retro orbital plexus from a set of three mice at 0.08, 0.35, 1, 3, 6, 12 and 24 hr. Plasma samples were separated by centrifugation of whole blood and stored below −70±10° C. until bioanalysis. Immediately after collection of blood, brain samples were collected from set of three mice at each time point. Brain samples were homogenized using ice-cold phosphate buffer saline (pH-7.4) in a ratio of 2 (buffer):1(brain); and homogenates were stored below −70±10° C. until analysis. Total homogenate volume was three times the brain weight. All samples were processed for analysis by protein precipitation using acetonitrile and analyzed with fit-for-purpose LC/MS/MS method (LLOQ2.00 ng/mL for plasma and 3.00 ng/g for brain). Pharmacokinetic parameters were calculated using the non-compartmental analysis tool of Phoenix WinNonlin® (Version 7.0). Pharmacokinetic parameters of Compound 15 are summarized below.
The objective of this study was to investigate the plasma pharmacokinetics and brain distribution of Compound 16 in male C57BL/6 mice following a single intravenous, intraperitoneal and oral administration. A group of sixty-three male mice were divided into three groups (Group 1: 10 mg/kg/IV; Group 2: 10 mg/kg/IP and Group 3: 10 mg/kg/PO) with each group comprising of twenty-one mice.
Animals in Group 1 were administered intravenously with Compound 16 solution formulation in 5% NMP, 5% Solutol HS-15 and 90% normal saline at 10 mg/kg dose.
Animals in Group 2 and 3 were administered with Compound 16 solution formulation in 5% NMP, 5% Solutol HS-15 and 90% normal saline at a dose of 10 mg/kg by intraperitoneal and oral route respectively.
as §1, with “(LLOQ—1.00” for “(LLOQ2.00”, “16” for “15”
The objective of this study was to investigate the plasma pharmacokinetics and brain distribution of Compound 17 in male C57BL/6 mice following a single intravenous, intraperitoneal and oral administration. A group of sixty-three male mice were divided into three groups (Group 1: 2 mg/kg/IV; Group 2: 10 mg/kg/IP and Group 3: 10 mg/kg/PO) with each group comprising of twenty-one mice. […]

[1] = male, C57BL/6, mouse, in vivo, iv, 2 mg/kg, Mean brain conc.
[2] = male, C57BL/6, mouse, in vivo, iv, 2 mg/kg, Mean plasma conc.
[3] = male, C57BL/6, mouse, in vivo, iv, 2 mg/kg, Plasma concentration, individual animal
[4] = male, C57BL/6, mouse, in vivo, po, 10 mg/kg
[5] = male, C57BL/6, mouse, in vivo, po, 10 mg/kg, 12 h
[6] = male, C57BL/6, mouse, in vivo, po, 10 mg/kg, 24 h
[7] = male, C57BL/6, mouse, in vivo, po, 10 mg/kg, Brain concentration, individual animal
[8] = male, C57BL/6, mouse, in vivo, po, 10 mg/kg, Mean brain conc.
[9] = male, C57BL/6, mouse, in vivo, po, 10 mg/kg, Mean plasma conc.
[10] = male, C57BL/6, mouse, in vivo, po, 10 mg/kg, Plasma concentration, individual animal
[11] = male, C57BL/6, mouse, plasma, IP 10 mg/kg
[12] = male, C57BL/6, mouse, plasma, IV 2 mg/kg
[13] = male, C57BL/6, mouse, plasma, PO 10 mg/kg

With `[2H]C1([2H])Oc2ccc(Nc3nc(-c4c(C)nc5ccccn45)cs3)cc2O1` [Compound 17, N-(benzo[d][1,3]dioxol-5-yl-2,2-d2)-4-(2-methylimidazo[1,2-c]pyridin-3-yl)thiazol-2-amine hydrochloride] the concentration at 6 h [1] was 0 ng/g, the concentration at 12 h [1] was 0 ng/g and the concentration at 24 h [1] was 0 ng/g. For the same compound, the concentration at 0.08 h [2] was 256 ng/mL, the concentration at 0.35 h [2] was 44.8 ng/mL and the concentration at 1 h [2] was 9.57 ng/mL. For the same compound, the concentration at 3 h [2] was 0 ng/mL, the concentration at 6 h [2] was 0 ng/mL and the concentration at 12 h [2] was 0 ng/mL. The concentration at 24 h [2] was 0 ng/mL, the concentration at 0.08 h [3] was 260 ng/mL and the concentration at 0.35 h [3] was 41.5 ng/mL. For the same compound, the concentration at 3 h [3] was 0 ng/mL, the concentration at 6 h [3] was 0 ng/mL and the concentration at 12 h [3] was 0 ng/mL. For the same compound, the concentration at 24 h [3] was 0 ng/mL, the “Brain concentrations quantifiable up to” value [4] was “up to 6 hr” and the “Plasma concentrations quantifiable up to” value [4] was “up to 6 hr”. For the same compound, the “Brain concentration, individual animal” value [5] was 0.00 ng/g, the “Plasma concentration, individual animal” value [5] was 0.00 ng/mL and the “Brain concentration, individual animal” value [6] was 0.00 ng/g. The “Plasma concentration, individual animal” value [6] was 0.00 ng/mL, the concentration at 0.35 h [7] was 43.6 ng/g and the concentration at 3 h [7] was 28.1 ng/g. It also gave a concentration at 12 h [7] of 0 ng/g, a concentration at 24 h [7] of 0 ng/g and a concentration at 0.35 h [8] of 53 ng/g. For the same compound, the concentration at 1 h [8] was 51.9 ng/g, the concentration at 3 h [8] was 20.5 ng/g and the concentration at 6 h [8] was 10.5 ng/g. For the same compound, the concentration at 12 h [8] was 0 ng/g, the concentration at 24 h [8] was 0 ng/g and the concentration at 0.35 h [9] was 163 ng/mL. It also gave a concentration at 1 h [9] of 109 ng/mL, a concentration at 3 h [9] of 63.5 ng/mL and a concentration at 6 h [9] of 45.5 ng/mL. The concentration at 12 h [9] was 0 ng/mL, the concentration at 24 h [9] was 0 ng/mL and the concentration at 3 h [10] was 62.6 ng/mL. It also gave a concentration at 12 h [10] of 0 ng/mL, a concentration at 24 h [10] of 0 ng/mL and a concentration at 0.08 h (male, C57BL/6, mouse, in vivo, IP 10 mg/kg, 0.08 hr, read-out: Mean brain conc.) of 288 ng/g. The concentration at 0.08 h (male, C57BL/6, mouse, in vivo, IP 10 mg/kg, 0.08 hr, read-out: Mean plasma conc.) was 469 ng/mL, the Kp at 0.08 h (male, C57BL/6, mouse, in vivo, IV 2 mg/kg, 0.08 hr, read-out: Brain-to-plasma ratio) was 0.18 and the Kp at 0.35 h (male, C57BL/6, mouse, in vivo, IV 2 mg/kg, 0.35 hr, read-out: Brain-to-plasma ratio) was 4.03. It also gave a Kp at 1 h (male, C57BL/6, mouse, in vivo, IV 2 mg/kg, 1 hr, read-out: Brain-to-plasma ratio) of 1.45, a concentration at 0.08 h (male, C57BL/6, mouse, in vivo, PO 10 mg/kg, 0.08 hr, read-out: Mean brain conc.) of 67.3 ng/g and a concentration at 0.08 h (male, C57BL/6, mouse, in vivo, PO 10 mg/kg, 0.08 hr, read-out: Mean plasma conc.) of 207 ng/mL. The Cmax (male, C57BL/6, mouse, in vivo, brain, IP 10 mg/kg) was 288 ng/g, the Cmax (male, C57BL/6, mouse, in vivo, brain, PO 10 mg/kg) was 67.3 ng/g and the Cmax (male, C57BL/6, mouse, in vivo, plasma, IP 10 mg/kg) was 469 ng/mL. It also gave a Cmax (male, C57BL/6, mouse, in vivo, plasma, PO 10 mg/kg) of 207 ng/mL, a bioavailability (male, C57BL/6, mouse, plasma, po, 10 mg/kg, PO 10 mg/kg, AUClast considered, read-out: Oral bioavailability, % F) of over 100% and a bioavailability (male, C57BL/6, mouse, plasma, po, 10 mg/kg, summary data, read-out: Oral bioavailability) of over 100%. The Tmax (male, C57BL/6, mouse, brain, IP 10 mg/kg) was 4.8 min, the Tmax (male, C57BL/6, mouse, brain, PO 10 mg/kg) was 4.8 min and the AUC(0-inf) [11] was 786 ng·h/mL. The AUC(0-t) [11] was 675 ng·h/mL, the Tmax [11] was 4.8 min and the AUC(0-inf) [12] was 88.2 ng·h/mL. The AUC(0-t) [12] was 85.7 ng·h/mL, the clearance (male, C57BL/6, mouse, plasma, IV 2 mg/kg, read-out: CL, plasma clearance) was 378 mL/min/kg and the half-life (male, C57BL/6, mouse, plasma, IV 2 mg/kg, read-out: T1/2, terminal elimination half-life (converted)) was 12.6 min. It also gave a Vd (male, C57BL/6, mouse, plasma, IV 2 mg/kg, read-out: Vss) of 4.4 L/kg, an AUC(0-t) [13] of 482 ng·h/mL and a Tmax [13] of 4.8 min. The “mortality immediately after dose administration” value (mouse, in vivo, iv, 10 mg/kg) was “mortality was observed in six animals” and the Oral bioavailability (summary data, hydrochloride) was 112%.
